Source: US12329786B2, “Regulate gut microbiota to treat neurodegenerative disorders” (California Institute of Technology, priority 2016, dated 2025)

target: T1, human αSyn (Homo sapiens, UniProt P37840); experiment: In vitro αSyn aggregation kinetics by ThT fluorescence; format: biochemical; conditions: range of concentrations, singly or in mixtures
T1 construct: made in house
Description: The ThT fluorescence signal was recorded using a microplate reader (Fluostar OPTIMA Microplate reader, BMG Labtech) with the excitation filter of 440±10 nm and an emission filter of 490±10 nm under intermittent shaking conditions at 37 °C. The kinetic curves were normalized to the fluorescence maxima and the time to reach half-maximum intensity quantified. For atomic force microscopy (AFM) imaging, samples were diluted with ultrapure water to […] total protein concentration, and […] were pipetted onto freshly cleaved mica and left to dry. The samples were imaged with a Modular scanning probe microscope NTEGRA Prima (NT-MDT) in intermittent contact mode in air using a gold-coated single crystal silicon cantilever (spring constant of ˜5.1 N/m) with a resonance frequency of ˜150 kHz. AFM images were processed with Gwyddion open source software.

Row | SMILES | αSyn aggregation kinetics (ThT fluorescence, time to half-max)
1 | CC(=O)[O-].[Na+] [sodium acetate] | did not expedite the aggregation of human αSyn in vitro
2 | CCC(=O)[O-].[Na+] [sodium propionate] | did not expedite the aggregation of human αSyn in vitro
3 | CCCC(=O)[O-].[Na+] [sodium butyrate] | did not expedite the aggregation of human αSyn in vitro
